From US7893108B2, “Antiviral methods and compositions” (priority 2004, dated 2011)
“Also recorded” adds a separate entry of the source. Read-outs that look alike come from different tables or passages of the source.

Experiments:
UL54 = UL54 (Human cytomegalovirus, UniProt P08546); assay: basal DNA polymerase activity of UL54 alone (filter-based assay); assay type: biochemical; conditions: 0, 4, 20, 40, 100 μM; 20 min at 37° C.; read-out: IC50 for inhibition of the activity of UL54 alone
Experimental: The basal DNA polymerase activity of UL54 in the absence or in the presence of various amounts of each compound was measured by a filter-based assay as previously described (Loregian et al., 2003), but using 5 μl of in vitro-transcribed and -translated UL54 as in Loregian et al. (Loregian et al., 2004a). The reaction was initiated by addition of a reaction mixture containing 75 mM Tris-HCl (pH 8.0), 6.5 mM MgCl2, bovine serum albumin (400 μg/ml), 1.67 mM β-mercaptoethanol, 150 mM KCl, 1.6 μM [^3H]dTTP, poly(dA)-oligo(dT) (10 μg/ml; Amersham Pharmacia Biotech), and 0, 4, 20, 40, 100 μM of each compound. Samples were taken after 20 min of incubation at 37° C. and spotted onto DE81 filters (Whatman), previously soaked in 0.1 M EDTA and air dried. The filters were washed three times in 5% Na2HPO4, two times in water, and two times in methanol and then were dried. Radioactivity was measured with a scintillation counter.

HCMV AD169 = assay: virus yield reduction assay; assay type: cell-based, human cytomegalovirus
Experimental: Next, we tested the effects of selected compounds and of GCV as a control in viral yield assays, which measure the titer of virus progeny produced following infection at relatively high multiplicity. In these assays, the viral titer was measured at two different times points post-infection (p.i.): at 96 hrs, when the release of virus progeny is increasing, and at 120 hrs, when the titer of virus progeny after a single cycle of replication reaches peak levels (Stinski, 1983).
(§1) For yield reduction assays, HFF cells were plated at 2×10^4 cells per well in 96-well cluster dishes, incubated overnight, and infected with HCMV AD169 at a multiplicity of infection (MOI) of 1. After virus adsorption for 2 hr at 37° C., cells were washed and incubated with 200 μl of fresh media containing test compounds at increasing drug concentration. Plates were incubated for 3 or 5 days at 37° C. and subjected to one cycle of freezing and thawing, and titers were determined by transferring 100-μl aliquots from each of the wells to a fresh 96-well monolayer culture of HFF cells followed by 1:5 serial dilution across the plate. Cultures were incubated for 7 days, cells were stained, and the numbers of plaques were determined as described above.
as §1, with “The effect of the compounds was assessed in an assay of virus yield. In this assay, cells are infected at a relatively high multiplicity of infection (about one per cell) and then drug is added. The virus produced at the different times post infection is measured. 120 hrs. is about the peak titer. This assay was conducted as follows.” for “For yield reduction assays,”, “20,000” for “2×10^4”, “an MOI” for “a multiplicity of infection (MOI)”, “0.1, 0.3, 1, 3, 10, 30 μM” for “increasing”

UL54 plus GST-UL44ΔC290 = target: T1, UL54 plus GST-UL44ΔC290 (Human cytomegalovirus, UniProt P16790); assay: long-chain DNA synthesis by UL54 in the presence of UL44; assay type: biochemical, HCMV; conditions: for inhibition of long-chain DNA synthesis by UL54 and UL44: dose-response
T1 construct: GST-UL44ΔC290 fusion protein, which contains the N-terminal 290 residues of HCMV UL44; made in house; host or cells: UL54: in vitro transcription/translation; GST-UL44ΔC290: E. coli BL21 (DE3)pLysS
Experimental: To analyze the ability of the compounds to interfere with functional UL54-UL44 interactions, we tested their ability to inhibit long-chain DNA synthesis by UL54 in the presence of UL44 employing a poly(dA)-oligo(dT)12-18 template-primer.
DNA polymerase assays. The effects of compounds were tested in an assay that measures long-chain DNA synthesis as described in Loregian et al. (Loregian et al., 2004a), with 5 μl of in vitro-transcribed and -translated UL54 plus 800 fmol of GST-UL44ΔC290 in the absence or in the presence of various amounts of each compound.
The effect of the compounds was also tested in an assay that measures long chain (Lc) DNA synthesis as described in Loregian et al., J. Virol. […]

HFF cells = assay: XTT cytotoxicity assay; assay type: cell-based, human
Experimental: (§2) Cytotoxicity assays. HFF cells were seeded at 2×10^4, 4×10^3, or 10^3 cells per well into 96-well plates and, after a 3-hr incubation to allow cell attachment, were treated for 24, 72, or 120 hr, respectively, with various concentrations of each compound in duplicate. Cell viability was then determined with an XTT assay (Roche Molecular Biochemicals) according to the manufacturer's protocol by using a Victor plate reader (Wallac).
(§3) The cytotoxicity of the compounds was measured in an XTT assay. XTT is a compound that is converted to a product that can be measured […], but only by viable cells. This assay is as follows. HFF (human foreskin fibroblasts) cells were seeded at different concentrations into 96-well plates and treated with various concentrations (from 0 to 200 μM) of each compound in duplicate for 24, 72 or 120 hr. Cell viability was then determined with an XTT assay (Roche Molecular Biochemicals) according to the manufacturer's protocol by using a Victor plate reader (Wallac).

HCMV strain AD169 = assay: plaque reduction assay; assay type: cell-based, human cytomegalovirus; conditions: HFF cells; 0-30 μM
Experimental: Antiviral assays. Plaque reduction assays were performed essentially as follows: HFF (human foreskin fibroblast) cells were seeded at 2×10^5 cells per well in 24-well cluster dishes. The next day, cells were infected with HCMV (strain AD169) at 80 PFU per well in DMEM plus 5% fetal bovine serum (FBS) at 37° C. Two hours post-infection, the inocula were removed, cells were washed, and media containing various drug dilutions, 5% FBS, and 0.6% methylcellulose were added. All drug dilutions were tested at least in duplicate. After incubation at 37° C. for 10-11 days, cell monolayers were stained with crystal violet and plaques were counted under light microscopy.
The effect of the compounds was assessed in a plaque reduction assay that measures the number of plaques formed in the presence of varying concentrations of a drug, as follows. HFF were seeded at 2×10^5 cells per well in 24-well cluster dishes. The next day, they were infected with HCMV AD169 at 80 PFU per well in DMEM plus 5% FBS at 37° C. Two hr post-infection, the inocula were then removed, cells were washed, and media containing selected drug dilutions (0, 0.1, 0.3, 1, 3, 10, 30 μM), and 5% FBS and 0.6% methylcellulose were added. All drug dilutions were tested at least in duplicate. After incubation at 37° C. for 10-11 days, cell monolayers were stained with crystal violet and plaques were enumerated under light microscopy.

[1] = target: T2, full-length UL54 / UL44 interaction (Human cytomegalovirus, UniProt P16790); assay: UL54-UL44 interaction ELISA; assay type: binding, HCMV; conditions: concentrations up to 200 μM
T2 construct: made in house; host or cells: baculovirus expression; proteins provided by H. S. Marsden (Institute of Virology, Glasgow)
Experimental: In this assay, binding between purified baculovirus-expressed UL54 and UL44, which was tagged with an EEF epitope, was detected using an antibody that recognizes the epitope tag (Loregian et al., 2003).
UL54-UL44 interaction ELISA. This assay was conducted as described in (Loregian et al., 2003), testing various concentrations of each compound. After final washes, the chromogenic substrate 2,2′-azino-bis(3-ethylbenzothiazoline-6-sulphonic acid (ABTS, Pierce) in citrate phosphate buffer (pH 4.0) containing 0.01% hydrogen peroxide was added and absorbance was read at 405 nm on a Victor plate reader (Wallac).
Another assay that was used to test the effect of the compounds on the interaction of UL44 and UL54 is an ELISA interaction assay, which measures the interaction of the two full length proteins with each other. This assay was conducted as described in Loregian et al., J. Virol. 2003, 77:8336-8344, testing different concentrations (0, 3.12, 6.25, 12.5, 25, 50, 100, 200 μM) of each compound.

XTT cytotoxicity assay = assay type: cell-based, human; conditions: human
Experimental: as §2, §3

[2] = literature; cited from earlier work

T1 sequence (P16790 1-290, stated change not applied): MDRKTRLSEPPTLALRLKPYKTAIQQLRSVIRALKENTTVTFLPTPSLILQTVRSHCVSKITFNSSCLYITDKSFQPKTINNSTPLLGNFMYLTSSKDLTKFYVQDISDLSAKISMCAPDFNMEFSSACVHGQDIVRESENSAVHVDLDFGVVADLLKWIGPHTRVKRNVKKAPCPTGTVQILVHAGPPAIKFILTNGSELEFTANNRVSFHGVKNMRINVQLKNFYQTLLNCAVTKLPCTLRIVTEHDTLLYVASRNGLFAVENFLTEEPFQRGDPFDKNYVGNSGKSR
T2 sequence (P16790 whole entry): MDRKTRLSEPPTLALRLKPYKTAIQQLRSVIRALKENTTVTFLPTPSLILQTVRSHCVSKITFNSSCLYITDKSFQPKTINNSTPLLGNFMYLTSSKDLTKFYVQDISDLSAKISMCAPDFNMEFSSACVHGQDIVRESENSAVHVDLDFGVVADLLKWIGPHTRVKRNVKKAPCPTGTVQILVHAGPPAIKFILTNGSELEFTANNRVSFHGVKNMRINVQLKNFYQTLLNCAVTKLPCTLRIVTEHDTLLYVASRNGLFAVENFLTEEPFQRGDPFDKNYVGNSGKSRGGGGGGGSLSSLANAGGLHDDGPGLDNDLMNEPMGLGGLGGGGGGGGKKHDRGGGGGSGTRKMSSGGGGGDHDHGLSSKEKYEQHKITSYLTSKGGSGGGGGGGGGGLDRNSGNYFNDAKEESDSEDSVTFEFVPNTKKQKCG
UL54, sequence (P08546 whole entry): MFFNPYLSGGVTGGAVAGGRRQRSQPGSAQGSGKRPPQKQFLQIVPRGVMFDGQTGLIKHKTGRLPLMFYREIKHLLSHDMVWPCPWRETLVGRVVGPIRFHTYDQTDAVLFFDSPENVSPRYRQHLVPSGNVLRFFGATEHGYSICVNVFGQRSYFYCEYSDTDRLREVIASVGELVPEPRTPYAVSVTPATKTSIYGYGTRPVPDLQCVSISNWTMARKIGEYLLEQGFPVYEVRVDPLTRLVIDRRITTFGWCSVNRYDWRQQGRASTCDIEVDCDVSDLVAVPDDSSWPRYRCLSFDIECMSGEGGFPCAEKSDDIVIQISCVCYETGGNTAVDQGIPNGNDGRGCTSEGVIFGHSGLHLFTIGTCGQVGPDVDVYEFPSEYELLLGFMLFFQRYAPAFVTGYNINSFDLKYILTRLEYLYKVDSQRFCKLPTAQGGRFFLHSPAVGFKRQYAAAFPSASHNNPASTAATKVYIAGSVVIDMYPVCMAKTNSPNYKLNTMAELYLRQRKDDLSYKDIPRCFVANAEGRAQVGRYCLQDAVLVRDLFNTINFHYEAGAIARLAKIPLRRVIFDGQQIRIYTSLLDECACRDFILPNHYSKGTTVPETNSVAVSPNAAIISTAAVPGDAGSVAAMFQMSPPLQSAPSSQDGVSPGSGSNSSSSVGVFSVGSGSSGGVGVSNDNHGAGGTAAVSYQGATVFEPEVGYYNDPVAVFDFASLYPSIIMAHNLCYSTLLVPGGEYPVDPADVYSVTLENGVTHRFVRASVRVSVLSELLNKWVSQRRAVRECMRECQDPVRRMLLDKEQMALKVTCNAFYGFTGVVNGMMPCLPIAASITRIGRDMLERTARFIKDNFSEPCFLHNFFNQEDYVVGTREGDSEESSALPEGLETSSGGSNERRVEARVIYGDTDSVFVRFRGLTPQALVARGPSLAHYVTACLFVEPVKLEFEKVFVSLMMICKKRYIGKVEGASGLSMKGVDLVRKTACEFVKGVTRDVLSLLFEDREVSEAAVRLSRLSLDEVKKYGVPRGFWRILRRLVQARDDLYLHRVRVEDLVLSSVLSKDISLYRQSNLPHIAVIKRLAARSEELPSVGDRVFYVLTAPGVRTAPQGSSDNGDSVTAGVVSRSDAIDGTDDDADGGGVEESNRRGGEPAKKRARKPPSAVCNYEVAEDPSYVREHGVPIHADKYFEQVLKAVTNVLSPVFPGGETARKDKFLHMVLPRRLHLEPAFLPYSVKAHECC

| SMILES | effect on virus yield / HCMV replication (HCMV AD169) | inhibition of long-chain DNA synthesis by UL54 and UL44 (UL54 plus GST-UL44ΔC290) | IC50s in plaque reduction assay (HCMV strain AD169) | inhibition of the UL54-UL44 physical interaction [1] | other results |
| --- | --- | --- | --- | --- | --- |
| CCOc1cc(C2C(C#N)=C(N)Oc3n[nH]c(-c4ccc(OC)cc4)c32)cc([N+](=O)[O-])c1O (stereo not drawn) [AL2] | little or no effect | little or no inhibition | – | – | IC50 (UL54): 95 µM |
| Nc1ccc(N)c2c1C(=O)c1c(O)ccc(O)c1C2=O [AL18] | relatively low IC50s; also recorded: submicromolar | relatively low IC50s | relatively low IC50s | potent | CC50 (HFF cells; 120 hrs, HFF cells): 200 µM; cytotoxicity (HFF cells; HFF cells, 24, 72 or 120 hr): relatively high CC50's; inhibition of long-chain DNA synthesis by UL54 and UL44 at one concentration (UL54 plus GST-UL44ΔC290; 40 μM): severely decreased formation of long DNA products |
| CNC(=S)NN=Cc1ccc(OC)c(Br)c1 [AL20] | relatively low IC50s | little or no inhibition | relatively low IC50s | did not significantly inhibit | cytotoxic concentration relative to antiviral concentration (HFF cells): 7-500 fold; cytotoxicity (HFF cells): relatively high CC50's |
| Nc1nc(O)c2ncn(COC(CO)CO)c2n1 [GCV, ganciclovir, reference compound] | – | – | – | – | CC50 (XTT cytotoxicity assay): ~200 µM |
| Nc1ccn(C[C@@H](CO)OCP(=O)(O)O)c(=O)n1 [cidofovir] | – | – | – | – | cytotoxic activities reported [2]: 360 µM |
